Our source for the IC50 values is patent publication US9249145B2, “Heterocyclic derivatives of pyrazol-4-yl-pyrrolo[2,3-d]pyrimidines as janus kinase inhibitors” (Incyte Holdings Corporation, priority 2009, dated 2016).

Where a name gives a salt, the structure may show the parent alone. Read-outs that look alike come from different tables or passages of the source.

Test [1] has as its target T1, human JAK1 (a.a. 837-1142) (Homo sapiens, UniProt P23458).
T1 construct: The catalytic domains of human JAK1 (a.a. 837-1142); His tag (N); made in house; host or cells: insect cells (baculovirus)
The test is described as follows: In vitro JAK kinase assay (HTRF, phosphorylation of biotinylated peptide), JAK1. The test is classed as biochemical. The conditions noted are these: 1 mM ATP. The procedure:
(§1) Compounds herein were tested for inhibitory activity of JAK targets according to the following in vitro assay described in Park et al., Analytical Biochemistry 1999, 269, 94-104. The catalytic domains of human JAK1 (a.a. 837-1142), Jak2 (a.a. 828-1132) and Jak3 (a.a. 781-1124) with an N-terminal His tag were expressed using baculovirus in insect cells and purified. The catalytic activity of JAK1, JAK2 or JAK3 was assayed by measuring the phosphorylation of a biotinylated peptide. The phosphorylated peptide was detected by homogenous time resolved fluorescence (HTRF). IC50s of compounds were measured for each kinase in the 40 microL reactions that contain the enzyme, ATP and 500 nM peptide in 50 mM Tris (pH 7.8) buffer with 100 mM NaCl, 5 mM DTT, and 0.1 mg/mL (0.01%) BSA. The ATP concentration in the reactions was 90 μM for Jak1, 30 μM for Jak2 and 3 μM for Jak3 for Km conditions. For the 1 mM IC50 measurements, ATP concentration in the reactions was 1 mM. Reactions were carried out at room temperature for 1 hr and then stopped with 20 μL 45 mM EDTA, 300 nM SA-APC, 6 nM Eu-Py20 in assay buffer (Perkin Elmer, Boston, Mass.). Binding to the Europium labeled antibody took place for 40 minutes and HTRF signal was measured on a Fusion plate reader (Perkin Elmer, Boston, Mass.). See Tables 1, 2, 3, and 4 for data related to compounds of the invention.
A general note: In TR-FRET formats the signal depends on donor and acceptor labels being close together.

In a further test the target is T2, Jak2 (a.a. 828-1132) (Homo sapiens, UniProt O60674).
T2 construct: Jak2 (a.a. 828-1132); His tag (N); made in house; host or cells: insect cells (baculovirus)
The test is described as follows: In vitro JAK kinase assay (HTRF, phosphorylation of biotinylated peptide), JAK2. The test is classed as biochemical. The conditions noted are these: 1 mM ATP. The procedure: as §1

The mark [2] stands for this setting: Examples 12-91, read-out: JAK1 IC50 (nM) @ 1 mM ATP.
Where [3] appears, read: Examples 12-91, read-out: JAK2 IC50 (nM) @ 1 mM ATP.
Where [4] appears, read: Examples 92-162, read-out: JAK1 IC50 (nM) @ 1 mM ATP.
Where [5] appears, read: Examples 92-162, read-out: JAK2 IC50 (nM) @ 1 mM ATP.

T1 sequence (P23458 849-1154): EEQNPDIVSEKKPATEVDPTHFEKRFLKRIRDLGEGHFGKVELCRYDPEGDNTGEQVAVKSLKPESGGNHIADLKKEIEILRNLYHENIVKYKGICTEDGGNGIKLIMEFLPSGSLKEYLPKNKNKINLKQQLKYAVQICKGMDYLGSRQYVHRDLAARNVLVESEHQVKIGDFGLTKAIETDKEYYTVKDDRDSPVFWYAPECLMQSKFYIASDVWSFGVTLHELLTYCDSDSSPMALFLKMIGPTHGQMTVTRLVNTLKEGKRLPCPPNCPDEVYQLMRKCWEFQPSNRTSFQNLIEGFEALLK
T2 sequence (O60674 828-1132): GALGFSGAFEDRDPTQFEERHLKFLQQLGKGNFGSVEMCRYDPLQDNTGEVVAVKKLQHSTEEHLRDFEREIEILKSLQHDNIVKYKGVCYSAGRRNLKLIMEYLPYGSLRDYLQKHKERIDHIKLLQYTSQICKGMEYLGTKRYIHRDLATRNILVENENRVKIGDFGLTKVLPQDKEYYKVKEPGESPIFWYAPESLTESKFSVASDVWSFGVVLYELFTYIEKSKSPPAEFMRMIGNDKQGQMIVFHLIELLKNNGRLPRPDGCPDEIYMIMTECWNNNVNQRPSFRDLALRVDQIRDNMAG

By IC50 is commonly meant the concentration that gives 50% inhibition. For “4-(4-(2-(4-(7H-pyrrolo[2,3-d]pyrimidin-4-yl)-1H-pyrazol-1-yl)-3-cyanopropyl)piperazine-1-carbonyl)-3-hydroxybenzonitrile [Example 77]”, the results for the half-inhibitory concentration (IC50) (in test [1] (setting [2]); on Jak2 (a.a. 828-1132) (setting [3])) were less than 10 nM and 10 to 50 nM, respectively.

`N#CCC(CN1CCN(C(=O)c2ccc(C#N)cc2F)C(CO)C1)n1cc(-c2ncnc3[nH]ccc23)cn1` (mixture of isomers) [Example 160, 4-{[4-{3-cyano-2-[4-(7H-pyrrolo[2,3-d]pyrimidin-4-yl)-1H-pyrazol-1-yl]propyl}-2-(hydroxymethyl)piperazin-1-yl]carbonyl}-3-fluorobenzonitrile]: the half-inhibitory concentration (IC50) in test [1] (setting [4]) was 20 to 50 nM; on Jak2 (a.a. 828-1132) (setting [5]), more than 100 nM.

Take `C[C@@H]1CN(CC(CC#N)n2cc(-c3ncnc4[nH]ccc34)cn2)CCN1C(=O)c1ccc(C#N)cc1F` (mixture of isomers) [Example 161, 4-[((2R)-4-{3-cyano-2-[4-(7H-pyrrolo[2,3-d]pyrimidin-4-yl)-1H-pyrazol-1-yl]propyl}-2-methylpiperazin-1-yl)carbonyl]-3-fluorobenzonitrile]: the results for the 50% inhibitory concentration (IC50) (in test [1] (setting [4]); on Jak2 (a.a. 828-1132) (setting [5])) were 50 to 100 nM and more than 100 nM, respectively.

With `C[C@H]1CN(CC(CC#N)n2cc(-c3ncnc4[nH]ccc34)cn2)CCN1C(=O)c1ccc(C#N)cc1F` (mixture of isomers) [Example 162, 4-[((2S)-4-{3-cyano-2-[4-(7H-pyrrolo[2,3-d]pyrimidin-4-yl)-1H-pyrazol-1-yl]propyl}-2-methylpiperazin-1-yl)carbonyl]-3-fluorobenzonitrile], the results for the IC50 (in test [1] (setting [4]); at Jak2 (a.a. 828-1132) (setting [5])) were 20 to 50 nM and more than 100 nM, respectively.

Regarding `Cn1ccc(S(=O)(=O)N2CCN(CC(CF)n3cc(-c4ncnc5[nH]ccc45)cn3)CC2)n1` (racemic) [Example 10, (±)-4-(1-(1-fluoro-3-(4-(1-methyl-1H-pyrazol-3-ylsulfonyl)piperazin-1-yl)propan-2-yl)-1H-pyrazol-4-yl)-7H-pyrrolo[2,3-d]pyrimidine], the half-maximal inhibitory concentration (IC50) in test [1] (Examples 1-11, read-out: IC50 (nM) @ 1 mM ATP JAK1) is less than 10 nM; at Jak2 (a.a. 828-1132) (Examples 1-11, read-out: IC50 (nM) @ 1 mM ATP JAK2), more than 20 nM.

In the case of `C[C@@H]1CN(C(=O)c2ccc(C#N)cc2F)CCN1CC(CC#N)n1cc(-c2ncnc3[nH]ccc23)cn1` (single isomer, unassigned) [24, R-1], the IC50 in test [1] (setting [2]) is less than 10 nM; on Jak2 (a.a. 828-1132) (setting [3]), more than 100 nM.

As for `C[C@@H]1CN(C(=O)c2ccc(C#N)cc2F)CCN1CC(CC#N)n1cc(-c2ncnc3[nH]ccc23)cn1` (single isomer, unassigned) [24, R-2], the half-maximal inhibitory concentration (IC50) (in test [1] (setting [2]); at Jak2 (a.a. 828-1132) (setting [3])) was more than 100 nM in each case.

Regarding `C[C@H]1CN(C(=O)c2ccc(C#N)cc2F)CCN1CC(CC#N)n1cc(-c2ncnc3[nH]ccc23)cn1` (single isomer, unassigned) [25, S-1], the half-inhibitory concentration (IC50) (in test [1] (setting [2]); on Jak2 (a.a. 828-1132) (setting [3])) was more than 100 nM each time.

Turning to `C[C@H]1CN(C(=O)c2ccc(C#N)cc2F)CCN1CC(CC#N)n1cc(-c2ncnc3[nH]ccc23)cn1` (single isomer, unassigned) [25, S-2], the 50% inhibitory concentration (IC50) is less than 10 nM in test [1] (setting [2]) and more than 100 nM at Jak2 (a.a. 828-1132) (setting [3]).

Take `N#CCC(CN1CCN(C(=O)c2ccc(C#N)cc2F)CC1CO)n1cc(-c2ncnc3[nH]ccc23)cn1` (single isomer, unassigned) [156—peak 1, 4-{[4-{3-cyano-2-[4-(7H-pyrrolo[2,3-d]pyrimidin-4-yl)-1H-pyrazol-1-yl]propyl}-3-(hydroxymethyl)piperazin-1-yl]carbonyl}-3-fluorobenzonitrile trifluoroacetate Salt]: the results for the concentration for half-maximal inhibition (IC50) (in test [1] (setting [4]); at Jak2 (a.a. 828-1132) (setting [5])) were less than 20 nM and more than 100 nM, respectively.

Consider `N#CCC(CN1CCN(C(=O)c2ccc(C#N)cc2F)CC1CO)n1cc(-c2ncnc3[nH]ccc23)cn1` (single isomer, unassigned) [156—peak 2, 4-{[4-{3-cyano-2-[4-(7H-pyrrolo[2,3-d]pyrimidin-4-yl)-1H-pyrazol-1-yl]propyl}-3-(hydroxymethyl)piperazin-1-yl]carbonyl}-3-fluorobenzonitrile trifluoroacetate Salt], for which the IC50 (in test [1] (setting [4]); at Jak2 (a.a. 828-1132) (setting [5])) was more than 100 nM throughout.

Take `N#CCC(CN1CCN(C(=O)c2ccc(C#N)cc2F)CC1CO)n1cc(-c2ncnc3[nH]ccc23)cn1` (single isomer, unassigned) [156—peak 3, 4-{[4-{3-cyano-2-[4-(7H-pyrrolo[2,3-d]pyrimidin-4-yl)-1H-pyrazol-1-yl]propyl}-3-(hydroxymethyl)piperazin-1-yl]carbonyl}-3-fluorobenzonitrile trifluoroacetate Salt]: the results for the half-maximal inhibitory concentration (IC50) (in test [1] (setting [4]); on Jak2 (a.a. 828-1132) (setting [5])) were 50 to 100 nM and more than 100 nM, respectively.

As for `N#CCC(CN1CCN(C(=O)c2ccc(C#N)cc2F)CC1CO)n1cc(-c2ncnc3[nH]ccc23)cn1` (single isomer, unassigned) [156—peak 4, 4-{[4-{3-cyano-2-[4-(7H-pyrrolo[2,3-d]pyrimidin-4-yl)-1H-pyrazol-1-yl]propyl}-3-(hydroxymethyl)piperazin-1-yl]carbonyl}-3-fluorobenzonitrile trifluoroacetate Salt], the IC50 (in test [1] (setting [4]); at Jak2 (a.a. 828-1132) (setting [5])) was more than 100 nM in each case.

Consider `N#CCC(CN1CCN(C(=O)c2ccc(C#N)cc2F)CC1)n1cc(-c2ncnc3[nH]ccc23)cn1` (single isomer, unassigned) [Example 12, 4-[(4-{3-cyano-2-[4-(7H-pyrrolo[2,3-d]pyrimidin-4-yl)-1H-pyrazol-1-yl]propyl}piperazin-1-yl)carbonyl]-3-fluorobenzonitrile trifluoroacetate Salt], for which the figures for the IC50 (in test [1] (setting [2]); at Jak2 (a.a. 828-1132) (setting [3])) were less than 10 nM and 50 to 100 nM, respectively.

Take `N#CCC(CN1CCN(C(=O)c2ccc(C#N)cc2F)CC1)n1ccc(-c2ncnc3[nH]ccc23)c1` (single isomer, unassigned) [Example 13, 4-[(4-{3-cyano-2-[3-(7H-pyrrolo[2,3-d]pyrimidin-4-yl)-1H-pyrrol-1-yl]propyl}piperazin-1-yl)carbonyl]-3-fluorobenzonitrile trifluoroacetate Salt]: the IC50 in test [1] (setting [2]) is less than 10 nM; at Jak2 (a.a. 828-1132) (setting [3]), 50 to 100 nM.

For `COCC1CN(C(=O)c2ccc(C#N)cc2F)CCN1CC(CC#N)n1cc(-c2ncnc3[nH]ccc23)cn1` (single isomer, unassigned) [Example 157—peak 1, 4-{[4-{3-cyano-2-[4-(7H-pyrrolo[2,3-d]pyrimidin-4-yl)-1H-pyrazol-1-yl]propyl}-3-(methoxymethyl)piperazin-1-yl]carbonyl}-3-fluorobenzonitrile], the IC50 (in test [1] (setting [4]); on Jak2 (a.a. 828-1132) (setting [5])) was more than 100 nM each time.

As to `COCC1CN(C(=O)c2ccc(C#N)cc2F)CCN1CC(CC#N)n1cc(-c2ncnc3[nH]ccc23)cn1` (single isomer, unassigned) [Example 157—peak 2, 4-{[4-{3-cyano-2-[4-(7H-pyrrolo[2,3-d]pyrimidin-4-yl)-1H-pyrazol-1-yl]propyl}-3-(methoxymethyl)piperazin-1-yl]carbonyl}-3-fluorobenzonitrile], the results for the IC50 (in test [1] (setting [4]); on Jak2 (a.a. 828-1132) (setting [5])) were less than 20 nM and more than 100 nM, respectively.

Regarding `COCC1CN(C(=O)c2ccc(C#N)cc2F)CCN1CC(CC#N)n1cc(-c2ncnc3[nH]ccc23)cn1` (single isomer, unassigned) [Example 157—peak 3, 4-{[4-{3-cyano-2-[4-(7H-pyrrolo[2,3-d]pyrimidin-4-yl)-1H-pyrazol-1-yl]propyl}-3-(methoxymethyl)piperazin-1-yl]carbonyl}-3-fluorobenzonitrile], the IC50 (in test [1] (setting [4]); at Jak2 (a.a. 828-1132) (setting [5])) was more than 100 nM each time.

On to `N#CCC(CN1CCN(C(=O)c2ccc(C#N)cc2F)CC1CF)n1cc(-c2ncnc3[nH]ccc23)cn1` (single isomer, unassigned) [Example 158, 4-[(4-{3-cyano-2-[4-(7H-pyrrolo[2,3-d]pyrimidin-4-yl)-1H-pyrazol-1-yl]propyl}-3-fluoromethylpiperazin-1-yl)carbonyl]-3-fluorobenzonitrile], for which the IC50 in test [1] (setting [4]) is less than 20 nM; at Jak2 (a.a. 828-1132) (setting [5]) it was more than 100 nM.

Take `N#CCC(CN1CCN(C(=O)c2ccc(C#N)cc2F)CC1C(F)F)n1cc(-c2ncnc3[nH]ccc23)cn1` (single isomer, unassigned) [Example 159—peak 1, 4-{[4-{3-cyano-2-[4-(7H-pyrrolo[2,3-d]pyrimidin-4-yl)-1H-pyrazol-1-yl]propyl}-3-(difluoromethyl)piperazin-1-yl]carbonyl}-3-fluorobenzonitrile]: the IC50 (in test [1] (setting [4]); on Jak2 (a.a. 828-1132) (setting [5])) was more than 100 nM throughout.
